Experimental data published in patent publication US6306853A, “1,4-Dihydropyridine derivatives” (Nikken Chemicals Co., Ltd., priority 1998, dated 2001).
Several values for one entry are separate records, joined by “and”; a condition that tells them apart may be missing. Identical values can stand only once.

How the values were obtained:
[1] = test system: thoracic aorta of the rat; assay: Action easing KCl contraction in rat arteries; details: rat thoracic aorta ring, 50 mM KCl, compound 10^-6 M; read-out: Inhibitory rate of hyperpotassium contraction at 10^-6 M
Protocol: Action Easing KCl Contraction in Rat Arteries
The specimen was stabilized for approximately 60 minutes, then a potassium chloride solution was added to the Magnus tube to give a final concentration of 50 mM. The positive control compound or the compound of the present invention was cumulatively added to become 1×10^-6 M when the contraction reaction occurring at that time reached equilibrium. The contraction force was recorded by an FD-pickup (Nihon Koden) via a polygraph (Nihon Koden).

[2] = test system: VCR resistant murine leukemia (P388/VCR) cells; assay: In vivo overcoming of resistance in VCR resistant murine leukemia (P388/VCR) bearing mice, etoposide with compound 20 mg/kg; parameters: species or system CDF1 female mice; details: for Average days of survival / Rate of prolongation of life T/C: VP-16 3 mg/kg + compound 20 mg/kg
Protocol: In Vivo Test of Action Suppressing Proliferation of Cancer Cells by Combined Administration of Anti-cancer Drug Etoposide
Effect of Overcoming Resistance to an Anti-cancer Drug for VCR Resistant Murine Leukemia Cell Bearing Mice
(§1) 1.2×10^5 VCR resistant murine leukemia (P388/VCR) cells were transplanted intravenously into groups of 5-6 CDF1 female mice, then the compound of the present invention (20 mg/kg) and Etoposide (VP-16) (3 mg/kg) were administered intravenously once per day for 5 days, after dissolving them in a physiological salt solution containing a small amount of hydrochloric acid. The observation was started from the next day. The number of survival days were found and the life prolonging rate (T/C) with respect to the controls was found. The effect in overcoming resistance to an anti-cancer drug (T/V) was found by the following formula.
(§2) Effect of overcoming resistance to the anti-cancer drug (T/V) %
(§3) =[(Rate of prolongation of life using VP-16 and the present compound (T/C))/(Rate of prolongation of life using VP-16 alone (T/C))]×100

[3] = test system: VCR resistant murine leukemia (P388/VCR) cells; assay: In vivo overcoming of resistance in VCR resistant murine leukemia (P388/VCR) bearing mice, etoposide with compound 10 mg/kg; parameters: species or system CDF1 female mice; details: for Average days of survival / Effect of overcoming resistance T/V / Rate of prolongation of life T/C: VP-16 3 mg/kg + compound 10 mg/kg; for Effect of overcoming resistance T/V: vs VP-16 alone
Protocol: as §1, §2, §3
In Vivo Test of Action Suppressing Proliferation of Cancer Cells by Combined Administration of Anti-Cancer Drug Etoposide
The Test Example 3 was repeated using 10 mg/kg administration of the present compound and the effects of overcoming resistance to the anti-cancer drug were determined from the average days of survival.

[4] = Acute toxicity test in mice, intraperitoneal; details: mouse, in vivo, ip, 7 days observation
Protocol: Animals used: ddY male mice (SLC Japan), 4-5 weeks old, three to five mice per group.
Test method: The compound of the present invention was suspended in 0.5% sodium carboxymethylcellulose (CMC-Na) containing 0.1% Tween 80. It was administered to the mice intraperitoneally in amounts of 250, 500 or 1000 mg/kg in groups of three to five mice. The survival of the animals was observed up until 7 days after administration and LD50 value was calculated according to a Probit method.

[5] = i.v. once per day for 5 days, vs control
[6] = VP-16 alone 3 mg/kg, reference = 100

Compound: CCOC(=O)C1=C(c2ccc(-n3c(C)nc4cnccc43)cc2)NC(C)=C(C(=O)OCC#Cc2cccnc2)C1/C=C/c1ccccc1OC (centres unmarked) [Compound 14, 4-[(E)-2-(2-Methoxyphenyl)ethenyl]-6-methyl-2-[4-(2-methylimidazo[4,5-c]pyridin-1-yl)phenyl]-1,4-dihydropyridin-3,5-dicarboxylate 3-ethylester 5-[3-(3-pyridyl)-2-propynyl]ester]
- inhibition at 1 µM [1]: 0%
- Average days of survival ([2]; i.v. once per day for 5 days): 15.7 days
- Rate of prolongation of life T/C [2, 5]: 154%

Compound: CCOC(=O)C1=C(c2ccc(-n3c(C)nc4cnccc43)cc2)NC(C)=C(C(=O)OCC#Cc2cccnc2)C1C (centres unmarked) [Compound 1, 4,6-dimethyl-2-[4-(2-methylimidazo[4,5-c]pyridin-1-yl)phenyl]-1,4-dihydropyridin-3,5-dicarboxylic acid 3-ethylester 5-[3-(3-pyridyl)-2-propynyl]ester]
- inhibition at 1 µM [1]: 0%
- Average days of survival ([2]; i.v. once per day for 5 days): 13.6 days
- Rate of prolongation of life T/C [2, 5]: 148%

Compound: CCOC(=O)C1=C(c2ccc(-n3c(C(C)C)nc4cnccc43)cc2)NC(C)=C(C(=O)OCC#Cc2cccnc2)C1CC(c1ccccc1)c1ccccc1 (centres unmarked) [Compound 71, 4-(2,2-Diphenylethyl)-2-[4-(2-isopropylimidazo[4,5-c]pyridin-1-yl)phenyl]-6-methyl-1,4-dihydropyridin-3,5-dicarboxylate 3-ethylester 5-[3-(3-pyridyl)-2-propynyl]ester]
- Average days of survival [3]: 17.4 days
- Effect of overcoming resistance T/V [3]: 164%
- Rate of prolongation of life T/C ([3]; vs control): 167%

Compound: COc1ccc(CCN(C)CCCC(C#N)(c2ccc(OC)c(OC)c2)C(C)C)cc1OC (centres unmarked) [Verapamil, reference compound]
- inhibition at 1 µM [1]: 42.3%

Compound: CCOC(=O)C1=C(c2ccc(-n3c(C)nc4cnccc43)cc2)NC(C)=C(C(=O)OCC#Cc2cccnc2)C1C=C1c2ccccc2C2C(c3ccccc31)C2(F)F (centres unmarked) [Compound 67, 4-(1,1-Difluoro-1,1a,6,10b-tetrahydrodibenzo[a,e]cyclopropa[c]cyclohepten-6-ylidenemethyl)-6-methyl-2-[4-(2-methylimidazo[4,5-c]pyridin-1-yl)phenyl]-1,4-dihydropyridin-3,5-dicarboxylate 3-ethylester 5-[3-(3-pyridyl)-2-propynyl]ester]
- Average days of survival ([2]; i.v. once per day for 5 days): 14.3 days
- Rate of prolongation of life T/C [2, 5]: 139%

Compound: CCOC(=O)C1=C(c2ccc(-n3c(C)nc4cnccc43)cc2)NC(C)=C(C(=O)OCC#Cc2cnc3ccccc3c2)C1/C=C/c1ccccc1 (centres unmarked) [Compound 19, 6-Methyl-2-[4-(2-methylimidazo[4,5-c]pyridin-1-yl)phenyl]-4-[(E)-2-(2-phenyl)ethenyl]-1,4-dihydropyridin-3,5-dicarboxylate 3-ethylester 5-[(3-quonolyl)-2-propynyl]ester]
- Average days of survival ([2]; i.v. once per day for 5 days): 16.0 days
- Rate of prolongation of life T/C [2, 5]: 157%

Compound: CCOC(=O)C1=C(c2ccc(-n3c(C)nc4cnccc43)cc2)NC(C)=C(C(=O)OCC#Cc2cncc3ccccc23)C1/C=C/c1ccccc1 (centres unmarked) [Compound 20]
- Average days of survival ([2]; i.v. once per day for 5 days): 14.7 days
- Rate of prolongation of life T/C [2, 5]: 144%

Compound: COc1cc([C@@H]2c3cc4c(cc3[C@@H](O[C@@H]3O[C@@H]5CO[C@@H](C)O[C@H]5[C@H](O)[C@H]3O)[C@H]3COC(=O)[C@H]23)OCO4)cc(OC)c1O [VP-16, Etoposide, reference compound]
- Average days of survival (VP-16 alone) ([3]; VP-16 alone 3 mg/kg): 10.6 days
- Effect of overcoming resistance T/V (VP-16 alone) [3, 6]: 100%
- Rate of prolongation of life T/C (VP-16 alone) ([3]; VP-16 alone 3 mg/kg, vs control): 102%
- Average days of survival (VP-16 alone) ([2]; VP-16 alone 3 mg/kg, i.v. once per day for 5 days): 9.5 days and 11.0 days and 10.5 days
- Rate of prolongation of life T/C (VP-16 alone) ([2]; VP-16 alone 3 mg/kg, i.v. once per day for 5 days, vs control): 103% and 108% and 102%
- Effect of overcoming resistance T/V (VP-16 alone) [2, 6]: 100%

Compound: CCOC(=O)C1=C(c2ccc(-n3c(C)nc4cnccc43)cc2)NC(C)=C(C(=O)OCC#Cc2cccnc2)C1/C=C/c1ccco1 (centres unmarked) [Compound 16, 4-[(E)-2-(2-Furyl)ethenyl]-6-methyl-2-[4-(2-methylimidazo[4,5c]pyridin-1-yl)phenyl]1,4-dihdropyridin-3,5-dicarboxylate 3-ethylester 5-[3-(3-pyridyl)-2-propynyl]ester]
- inhibition at 1 µM [1]: 0%
- Average days of survival ([2]; i.v. once per day for 5 days): 15.0 days
- Rate of prolongation of life T/C [2, 5]: 147%

Compound: CCOC(=O)C1=C(c2ccc(-n3c(C)nc4cnccc43)cc2)NC(C)=C(C(=O)OCC#Cc2cccnc2)C1/C=C/c1ccccc1Cl (centres unmarked) [Compound 12, 4-[(E)-2-(2-chlorophenyl)ethenyl]-6-methyl-2-[4-(2-methylimidazo[4,5-c]pyridin-1-yl)phenyl]-1,4-dihydropyridin-3,5-dicarboxylate 3-ethylester 5-[3-(3pyridyl)-2-propynyl]ester]
- Average days of survival ([2]; i.v. once per day for 5 days): 16.8 days
- Rate of prolongation of life T/C [2, 5]: 165%

Compound: CCOC(=O)C1=C(c2ccc(-n3ccnc3)cc2)NC(C)=C(C(=O)OCC#Cc2cccnc2)C1/C=C/c1ccccc1 (centres unmarked) [Compound 24, 2-[4-(1-Imidazolyl)phenyl]-6-methyl-4-[(E)-2-phenylethenyl]-1,4-dihydropyridin-3,5-dicarboxylate 3-ethylester 5-[3-(3-pyridyl)-2-propynyl]ester]
- LD50 at 168 h [4]: > 1000 mg/kg

Compound: CCOC(=O)C1=C(c2ccc(-n3c(C)nc4cnccc43)cc2)NC(C)=C(C(=O)OC(C)C#Cc2cccnc2)C1CCc1ccccc1 (centres unmarked) [Compound 23, 6-Methyl-2-[4-(2-methylimidazo[4,5-c]pyridin-1-yl)phenyl]-4-(2-phenylethyl)-1,4-dihydropyridin-3,5-dicarboxylate 3-ethylester 5-[1-methyl-3-(3-pyridyl)-2-propynyl]ester]
- Average days of survival [3]: 13.0 days
- Effect of overcoming resistance T/V [3]: 123%
- Rate of prolongation of life T/C ([3]; vs control): 125%
- Average days of survival ([2]; i.v. once per day for 5 days): 15.8 days
- Rate of prolongation of life T/C [2, 5]: 172%

Compound: CCOC(=O)C1=C(c2ccc(-n3c(C)nc4cnccc43)cc2)NC(C)=C(C(=O)OCC#Cc2cccnc2)C1CC1c2ccccc2C2C(c3ccccc31)C2(F)F (centres unmarked) [Compound 66, 4-(1,1-Difluoro-1,1a,6, 10b-tetrahydrodibenzoa,[a,e]cyclopropa[c]cyclohepten-6-ylmethyl)-6-methyl-2-[4-(2-methylimidazo[4,5-c]pyridin-1-yl)phenyl]-1,4-dihydropyridin-3,5-dicarboxylate 3-ethylester 5-[3-(3-pyridyl)-2-propynyl]ester]
- Average days of survival ([2]; i.v. once per day for 5 days): 14.5 days
- Rate of prolongation of life T/C [2, 5]: 141%

Compound: CCOC(=O)C1=C(c2ccc(-n3c(C)nc4cnccc43)cc2)NC(C)=C(C(=O)OCC#Cc2cccnc2)C1CC(c1ccc(F)cc1)c1ccc(F)cc1 (centres unmarked) [Compound 78]
- Average days of survival [3]: 14.2 days
- Effect of overcoming resistance T/V [3]: 134%
- Rate of prolongation of life T/C ([3]; vs control): 137%

Compound: CCOC(=O)C1=C(c2ccc(-n3c(C)nc4cnccc43)cc2)NC(C)=C(C(=O)OCC#Cc2cccnc2)C1Cc1ccccc1 (centres unmarked) [Compound 6, 4-Benzyl-6-methyl-2-[4-(2-methylimidazo[4,5-c]pyridin-1-yl)phenyl]-1,4-dihydropyridin-3,5-dicarboxylate 3-ethylester 5-[3-(3-pyridyl)-2-propynyl]ester]
- inhibition at 1 µM [1]: 7.5%
- Average days of survival ([2]; i.v. once per day for 5 days): 16.0 days
- Rate of prolongation of life T/C [2, 5]: 174%

Compound: CCOC(=O)C1=C(c2ccc(-n3c(C)nc4cnccc43)cc2)NC(C)=C(C(=O)OCC#Cc2cccnc2)C1CCc1ccsc1 (centres unmarked) [Compound 17, 6-Methyl-2-[4-(2-methylimidazo[4,5-c]pyridin-1-yl)phenyl]-4-[2-(3-thienyl)ethyl]-1,4-dihydropyridin-3,5-dicarboxylate 3-ethylester 5-[3-(3-pyridyl)2-propynyl]ester]
- inhibition at 1 µM [1]: 0%
- Average days of survival ([2]; i.v. once per day for 5 days): 13.4 days
- Rate of prolongation of life T/C [2, 5]: 146%
